Here are results for 19 molecules from patent US20230310428A1, “EGFR INHIBITOR AND PREPARATION METHOD AND USE THEREOF” (HONGYUN BIOTECH CO., LTD., priority 2020, published 2023).

Each structure is given as a SMILES string.

Holding throughout (assay): Growth inhibitory activity of compounds on BaF3 cell lines stably transfected with kinase (MTS, 48 h)
What all share (assay type): cell-based

The target of experiment [1] is T1, various mutants of kinase EGFR (BaF3 cell lines stably transfected with kinase) (Homo sapiens, UniProt P00533).
T1 construct: other: BaF3 cells stably transfected with EGFR Δ19Del; MTS, 48 h; other: BaF3 cell line stably transfected with EGFR Δ19Del
T1 sequence (P00533 with tags, fused parts or gaps DEL746-750): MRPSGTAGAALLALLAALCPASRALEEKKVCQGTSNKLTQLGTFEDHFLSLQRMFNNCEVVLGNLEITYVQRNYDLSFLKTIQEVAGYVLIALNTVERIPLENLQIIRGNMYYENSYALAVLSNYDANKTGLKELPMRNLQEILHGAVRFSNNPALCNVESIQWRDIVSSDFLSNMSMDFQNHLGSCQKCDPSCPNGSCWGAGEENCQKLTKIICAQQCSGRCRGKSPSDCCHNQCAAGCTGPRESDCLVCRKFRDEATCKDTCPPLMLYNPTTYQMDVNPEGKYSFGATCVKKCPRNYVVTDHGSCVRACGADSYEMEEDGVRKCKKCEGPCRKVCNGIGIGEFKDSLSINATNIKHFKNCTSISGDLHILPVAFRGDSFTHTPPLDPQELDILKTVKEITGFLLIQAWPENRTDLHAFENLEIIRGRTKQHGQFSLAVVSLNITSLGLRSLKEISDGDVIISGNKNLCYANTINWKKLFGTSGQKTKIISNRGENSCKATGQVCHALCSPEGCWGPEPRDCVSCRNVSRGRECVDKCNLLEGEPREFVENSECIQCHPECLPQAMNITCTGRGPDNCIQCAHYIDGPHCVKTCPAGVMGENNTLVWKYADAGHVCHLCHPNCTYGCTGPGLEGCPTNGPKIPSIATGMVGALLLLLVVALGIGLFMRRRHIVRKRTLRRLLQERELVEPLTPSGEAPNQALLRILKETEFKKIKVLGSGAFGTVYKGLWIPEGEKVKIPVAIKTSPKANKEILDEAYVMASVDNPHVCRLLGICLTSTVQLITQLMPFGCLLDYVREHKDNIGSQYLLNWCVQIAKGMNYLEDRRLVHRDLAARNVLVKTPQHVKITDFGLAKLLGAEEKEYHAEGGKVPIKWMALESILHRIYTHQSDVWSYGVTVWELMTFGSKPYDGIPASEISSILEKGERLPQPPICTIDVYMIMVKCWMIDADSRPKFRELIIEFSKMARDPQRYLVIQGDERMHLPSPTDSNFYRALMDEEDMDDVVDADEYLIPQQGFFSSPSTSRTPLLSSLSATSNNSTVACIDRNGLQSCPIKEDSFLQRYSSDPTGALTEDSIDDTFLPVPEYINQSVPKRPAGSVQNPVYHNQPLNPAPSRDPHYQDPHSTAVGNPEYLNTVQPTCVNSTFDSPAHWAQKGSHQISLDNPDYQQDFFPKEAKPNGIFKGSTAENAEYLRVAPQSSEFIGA
As to conditions: BaF3 cells stably transfected with EGFR Δ19Del, read-out: IC50, growth inhibition, Δ19Del. As for the experimental part: (§1) The activity of compounds against various mutants of kinase EGFR was evaluated by their effect of inhibiting growth of BaF3 cell lines stably transfected with kinase. The specific test method was given as follows:
(§2) 1) Culture medium: DMEM (Dulbecco’s modified eagle medium) or RPMI 1640 (containing 10% fetal bovine serum, 100 µg/mL ampicillin, 100 µg/mL streptomycin).
(§3) 2) Reagent: MTS reaction solution (containing 2 mg/mL of MTS [3-(4,5-dimethylthiazol-2-yl)-5-(3-carboxymethoxyphenyl)-2-(4-sulfophenyl)-2H-tetrazoliu m, inner Salt]; 100 µg/mL of PES ([…])).
(§4) 3) Compound test: cells were incubated into a 96-well culture plate, the volume of cytosol was 90 µL, and then 10 µL of the compound at each gradient concentration was added. That is, the highest concentration was 10 µM, which was diluted stepwise by ⅓, and 8 concentration points were set in total; 0.1% DMSO (dimethyl sulfoxide) was contained in the system. The cell plate with uniformly mixed compound was cultured in a cell culture incubator (37° C.; 5% CO2) for 48 h, then 20 µL of MTS reaction solution was added, uniformly mixed and incubated in the cell culture incubator (37° C.; 5% CO2) for 1-4 h. OD values at 490 nm were measured by a microplate reader (VARIOSKAN FLASH, Thermo). Two parallels were set in each group of experiments, with 0.1% (a final concentration) DMSO as a negative control, and a culture medium without cells and compounds as a blank control. The cell growth inhibition rate was calculated by the following formula: […]
(§5) 4) IC50 calculation: The semi-inhibitory concentration of the compounds acting on cells was calculated using GradPad Prism 5 software according to the measured cell growth inhibition rate.

The target of experiment [2] is T2, various mutants of kinase EGFR (BaF3 cell lines stably transfected with kinase) (Homo sapiens, UniProt P00533, C797S/L858R/T790M).
T2 construct: expressed in transfected cells; host or cells: BaF3
As to conditions: BaF3 cells stably transfected with EGFR L858R/T790M/C797S, read-out: IC50, growth inhibition, L858R/T790M/C797S. The protocol: as §1, §2, §3, §4, §5

For experiment [3], the target named is T3, various mutants of kinase EGFR (BaF3 cell lines stably transfected with kinase) (Homo sapiens, UniProt P00533, L858R).
T3 construct: expressed in transfected cells; host or cells: BaF3
T3 sequence (P00533 25-1210 L858R): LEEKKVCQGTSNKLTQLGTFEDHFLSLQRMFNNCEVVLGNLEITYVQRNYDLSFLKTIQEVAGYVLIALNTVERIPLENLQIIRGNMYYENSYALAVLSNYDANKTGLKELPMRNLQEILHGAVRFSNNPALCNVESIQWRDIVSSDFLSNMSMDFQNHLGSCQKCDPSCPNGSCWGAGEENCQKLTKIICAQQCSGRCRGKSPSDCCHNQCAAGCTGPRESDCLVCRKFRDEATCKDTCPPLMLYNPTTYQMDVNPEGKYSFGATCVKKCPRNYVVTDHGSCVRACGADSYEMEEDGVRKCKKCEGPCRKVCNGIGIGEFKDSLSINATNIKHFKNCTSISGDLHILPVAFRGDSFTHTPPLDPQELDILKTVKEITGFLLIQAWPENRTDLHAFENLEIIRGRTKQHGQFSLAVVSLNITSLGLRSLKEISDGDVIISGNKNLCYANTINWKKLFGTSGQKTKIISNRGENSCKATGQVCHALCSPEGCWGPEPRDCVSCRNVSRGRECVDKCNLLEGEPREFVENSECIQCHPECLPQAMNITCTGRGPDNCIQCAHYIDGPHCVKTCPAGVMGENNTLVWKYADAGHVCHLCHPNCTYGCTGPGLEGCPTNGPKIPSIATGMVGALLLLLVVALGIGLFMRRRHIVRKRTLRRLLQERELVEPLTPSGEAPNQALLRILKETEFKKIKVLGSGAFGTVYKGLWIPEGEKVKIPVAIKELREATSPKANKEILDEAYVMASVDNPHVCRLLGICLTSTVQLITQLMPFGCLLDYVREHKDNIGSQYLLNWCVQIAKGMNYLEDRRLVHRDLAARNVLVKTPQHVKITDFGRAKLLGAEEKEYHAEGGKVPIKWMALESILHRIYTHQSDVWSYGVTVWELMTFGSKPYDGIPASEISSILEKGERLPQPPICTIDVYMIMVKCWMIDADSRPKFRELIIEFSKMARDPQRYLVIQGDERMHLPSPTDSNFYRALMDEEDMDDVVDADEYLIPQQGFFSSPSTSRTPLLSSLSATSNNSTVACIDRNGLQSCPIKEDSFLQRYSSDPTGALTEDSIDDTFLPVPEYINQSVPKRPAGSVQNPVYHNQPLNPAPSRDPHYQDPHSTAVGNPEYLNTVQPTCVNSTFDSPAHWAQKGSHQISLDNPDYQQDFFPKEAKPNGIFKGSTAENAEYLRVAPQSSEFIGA
The note with it: BaF3 cells stably transfected with EGFR L858R, read-out: IC50, growth inhibition, L858R. The protocol: as §1, §2, §3, §4, §5

In experiment [4] the target is T4, various mutants of kinase EGFR (BaF3 cell lines stably transfected with kinase) (Homo sapiens, UniProt P00533, L858R/T790M).
T4 construct: expressed in transfected cells; host or cells: BaF3
T4 sequence (P00533 25-1210 T790M/L858R): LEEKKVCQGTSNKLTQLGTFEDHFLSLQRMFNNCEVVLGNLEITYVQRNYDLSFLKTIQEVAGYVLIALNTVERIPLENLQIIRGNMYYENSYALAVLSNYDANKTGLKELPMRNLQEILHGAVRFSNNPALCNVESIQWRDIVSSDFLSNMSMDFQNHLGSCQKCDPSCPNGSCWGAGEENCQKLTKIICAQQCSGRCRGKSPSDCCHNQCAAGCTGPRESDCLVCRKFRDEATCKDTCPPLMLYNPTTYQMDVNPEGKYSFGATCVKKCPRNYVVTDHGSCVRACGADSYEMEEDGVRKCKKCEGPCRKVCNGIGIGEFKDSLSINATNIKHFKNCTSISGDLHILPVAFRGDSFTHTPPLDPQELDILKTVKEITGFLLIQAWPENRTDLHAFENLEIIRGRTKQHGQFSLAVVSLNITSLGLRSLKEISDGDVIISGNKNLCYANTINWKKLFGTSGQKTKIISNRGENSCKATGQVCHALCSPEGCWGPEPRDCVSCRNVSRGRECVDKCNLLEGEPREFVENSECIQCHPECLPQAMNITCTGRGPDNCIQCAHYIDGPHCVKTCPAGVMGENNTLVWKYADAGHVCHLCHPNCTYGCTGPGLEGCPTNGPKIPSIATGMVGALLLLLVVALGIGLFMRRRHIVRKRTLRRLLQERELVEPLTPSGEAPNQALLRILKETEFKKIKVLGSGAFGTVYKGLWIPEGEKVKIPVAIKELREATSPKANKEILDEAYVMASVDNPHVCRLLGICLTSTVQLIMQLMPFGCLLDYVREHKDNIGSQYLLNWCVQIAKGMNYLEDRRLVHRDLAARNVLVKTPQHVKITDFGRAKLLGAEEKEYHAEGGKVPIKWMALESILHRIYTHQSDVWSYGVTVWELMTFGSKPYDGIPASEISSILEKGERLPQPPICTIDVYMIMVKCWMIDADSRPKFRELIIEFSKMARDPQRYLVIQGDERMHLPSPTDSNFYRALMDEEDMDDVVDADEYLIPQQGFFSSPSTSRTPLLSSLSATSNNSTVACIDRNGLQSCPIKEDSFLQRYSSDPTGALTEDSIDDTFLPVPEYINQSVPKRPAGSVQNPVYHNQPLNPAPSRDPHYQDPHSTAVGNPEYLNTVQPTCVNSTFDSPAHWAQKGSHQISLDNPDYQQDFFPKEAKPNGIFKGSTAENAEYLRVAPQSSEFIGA
The note with it: BaF3 cells stably transfected with EGFR L858R/T790M, read-out: IC50, growth inhibition, L858R/T790M. The protocol:
as §1, §2, §3, §4, §5

The target of experiment [5] is T5, various mutants of kinase EGFR (BaF3 cell lines stably transfected with kinase) (Homo sapiens, UniProt P00533, T790M/C797S, form not given).
T5 construct: other: BaF3 cells stably transfected with EGFR Δ19Del/T790M/C797S; MTS, 48; other: BaF3 cell line stably transfected with EGFR Δ19Del/T790M/C7
As to conditions: BaF3 cells stably transfected with EGFR Δ19Del/T790M/C797S, read-out: IC50, growth inhibition, Δ19Del/T790M/C797S. As for the experimental part:
as §1, §2, §3, §4, §5

Experiment [6] has as its target T6, various mutants of kinase EGFR (BaF3 cell lines stably transfected with kinase) (Homo sapiens, UniProt P00533, T790M, form not given).
T6 construct: other: BaF3 cells stably transfected with EGFR Δ19Del/T790M; MTS, 48 h; other: BaF3 cell line stably transfected with EGFR Δ19Del/T790M; MTS, 48
The note with it: BaF3 cells stably transfected with EGFR Δ19Del/T790M, read-out: IC50, growth inhibition, Δ19Del/T790M. The protocol:
as §1, §2, §3, §4, §5

T6 sequence (P00533 with tags, fused parts or gaps DEL746-750/T790M, form open): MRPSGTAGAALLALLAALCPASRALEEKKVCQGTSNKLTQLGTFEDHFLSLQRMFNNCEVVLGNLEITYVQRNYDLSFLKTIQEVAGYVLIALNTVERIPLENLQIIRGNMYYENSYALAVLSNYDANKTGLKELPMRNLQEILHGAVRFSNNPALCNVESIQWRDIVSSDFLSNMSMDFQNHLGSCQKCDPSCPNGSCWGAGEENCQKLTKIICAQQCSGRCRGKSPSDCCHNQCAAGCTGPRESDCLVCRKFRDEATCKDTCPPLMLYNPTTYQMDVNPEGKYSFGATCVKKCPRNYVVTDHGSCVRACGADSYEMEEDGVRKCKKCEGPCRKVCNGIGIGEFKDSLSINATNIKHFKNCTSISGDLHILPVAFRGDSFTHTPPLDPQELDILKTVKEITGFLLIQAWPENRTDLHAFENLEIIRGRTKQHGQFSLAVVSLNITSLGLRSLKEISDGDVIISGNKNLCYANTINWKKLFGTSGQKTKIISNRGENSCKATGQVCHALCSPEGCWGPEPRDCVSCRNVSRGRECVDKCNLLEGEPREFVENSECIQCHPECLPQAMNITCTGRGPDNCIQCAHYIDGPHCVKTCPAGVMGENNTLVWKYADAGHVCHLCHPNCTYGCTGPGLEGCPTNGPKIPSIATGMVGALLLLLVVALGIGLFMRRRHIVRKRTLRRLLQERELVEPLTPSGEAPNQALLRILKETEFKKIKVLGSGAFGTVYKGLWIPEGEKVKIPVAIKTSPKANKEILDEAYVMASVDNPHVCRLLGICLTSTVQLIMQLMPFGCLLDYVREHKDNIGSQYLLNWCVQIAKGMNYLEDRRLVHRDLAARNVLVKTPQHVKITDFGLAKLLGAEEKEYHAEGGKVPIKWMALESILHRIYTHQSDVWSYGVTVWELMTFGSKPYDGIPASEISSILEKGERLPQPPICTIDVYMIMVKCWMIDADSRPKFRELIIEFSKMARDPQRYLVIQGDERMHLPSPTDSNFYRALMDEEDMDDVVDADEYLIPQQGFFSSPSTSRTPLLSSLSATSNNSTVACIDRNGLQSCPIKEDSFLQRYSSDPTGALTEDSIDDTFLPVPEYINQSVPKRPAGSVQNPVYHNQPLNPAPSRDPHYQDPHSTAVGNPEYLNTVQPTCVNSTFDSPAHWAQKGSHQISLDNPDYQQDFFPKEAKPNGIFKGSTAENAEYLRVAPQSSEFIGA

Regarding `CCS(=O)(=O)N(C)c1c(Nc2nc(Nc3cc(C)c(N4CCC(N5CCN(C)CC5)CC4)cc3OC)ncc2Cl)ccc2nccnc12` [Compound I-114], the IC50 in experiment [1], in experiment [2], in experiment [3], in experiment [4], in experiment [5] and in experiment [6] was at most 50 nM throughout.
On to `CCc1cc(Nc2ncc(Cl)c(Nc3ccc4nccnc4c3N(C)S(=O)(=O)CC)n2)c(OC)cc1N1CCC(N2CCN(C)CC2)CC1` [Compound I-115], for which the IC50 in experiment [1], in experiment [2], in experiment [3], in experiment [4], in experiment [5] and in experiment [6] was at most 50 nM in each case.
With `CCc1cc(Nc2ncc(Cl)c(Nc3ccc4nccnc4c3N(C)S(=O)(=O)CC)n2)c(OC(F)(F)F)cc1N1CCC(N2CCN(C)CC2)CC1` [Compound I-116], the IC50 in experiment [1] was 50 to 500 nM; in experiment [2] it was 50 to 500 nM; in experiment [3], 50 to 500 nM; in experiment [4], 50 to 500 nM; in experiment [5] it was at most 50 nM; in experiment [6], 50 to 500 nM.
Consider `CCc1cc(Nc2ncc(Cl)c(Nc3ccc4nccnc4c3N(C)S(=O)(=O)CC)n2)c(OC)cc1N1CCC(N(C)C)CC1` [Compound I-117], for which the IC50 in experiment [1], in experiment [2], in experiment [3], in experiment [4], in experiment [5] and in experiment [6] was at most 50 nM each time.
For the molecule `CCc1cc(Nc2ncc(Cl)c(Nc3ccc4nccnc4c3N(C)S(=O)(=O)CC)n2)c(OC)cc1N1CCC(N(C)C)C1` (stereo not drawn) [Compound I-118], the IC50 in experiment [1], in experiment [2], in experiment [3], in experiment [4], in experiment [5] and in experiment [6] was at most 50 nM each time.
As to `CCc1cc(Nc2ncc(Cl)c(Nc3ccc4nccnc4c3N(C)S(=O)(=O)C3CC3)n2)c(OC)cc1N1CCC(N2CCN(C)CC2)CC1` [Compound I-120], the IC50 in experiment [1], in experiment [2], in experiment [3], in experiment [4], in experiment [5] and in experiment [6] was at most 50 nM each time.
`CCc1cc(Nc2ncc(Cl)c(Nc3ccc4nccnc4c3N(C)S(=O)(=O)C3CC3)n2)c(OC(F)(F)F)cc1N1CCC(N2CCN(C)CC2)CC1` [Compound I-121]: the IC50 in experiment [1], in experiment [2], in experiment [3], in experiment [4], in experiment [5] and in experiment [6] was 50 to 500 nM each time.
Turning to `CCc1cc(Nc2ncc(Cl)c(Nc3ccc4nccnc4c3N(C)S(=O)(=O)C3CC3)n2)c(OC)cc1N1CCC(N(C)C)CC1` [Compound I-122], the IC50 in experiment [1], in experiment [2], in experiment [3], in experiment [4], in experiment [5] and in experiment [6] was at most 50 nM in each case.
In the case of `CCc1cc(Nc2ncc(Cl)c(Nc3ccc4nccnc4c3N(C)S(=O)(=O)C3CC3)n2)c(OC)cc1N1CCC(N(C)C)C1` (stereo not drawn) [Compound I-123], the IC50 in experiment [1] is 50 to 500 nM; in experiment [2], 50 to 500 nM; in experiment [3], 50 to 500 nM; in experiment [4], at most 50 nM; in experiment [5] it was at most 50 nM; in experiment [6], 50 to 500 nM.
Take `COc1cc(N2CCC(N3CCN(C)CC3)CC2)c(C)cc1Nc1ncc(Br)c(Nc2ccc3nccnc3c2N(C)S(=O)(=O)C(F)(F)F)n1` [Compound I-124]: the IC50 in experiment [1] is 500 to 2500 nM; in experiment [2], 50 to 500 nM; in experiment [3] it was 500 to 2500 nM; in experiment [4] it was 50 to 500 nM; in experiment [5] it was at most 50 nM; in experiment [6], 50 to 500 nM.
For the molecule `CCc1cc(Nc2ncc(Br)c(Nc3ccc4nccnc4c3N(C)S(=O)(=O)C(F)(F)F)n2)c(OC)cc1N1CCC(N2CCN(C)CC2)CC1` [Compound I-125], the IC50 in experiment [1] was 500 to 2500 nM; in experiment [2], 50 to 500 nM; in experiment [3], 50 to 500 nM; in experiment [4], 50 to 500 nM; in experiment [5], at most 50 nM; in experiment [6], 50 to 500 nM.
In the case of `CCc1cc(Nc2ncc(Br)c(Nc3ccc4nccnc4c3N(C)S(=O)(=O)C(F)(F)F)n2)c(OC(F)(F)F)cc1N1CCC(N2CCN(C)CC2)CC1` [Compound I-126], the IC50 in experiment [1] was in the range of 500 to 2500 nM; in experiment [2], 50 to 500 nM; in experiment [3] it was 500 to 2500 nM; in experiment [4], 500 to 2500 nM; in experiment [5], 50 to 500 nM; in experiment [6], 50 to 500 nM.
`CCc1cc(Nc2ncc(Br)c(Nc3ccc4nccnc4c3N(C)S(=O)(=O)C(F)(F)F)n2)c(OC)cc1N1CCC(N(C)C)CC1` [Compound I-127]: the IC50 in experiment [1] was 500 to 2500 nM; in experiment [2], 50 to 500 nM; in experiment [3], 500 to 2500 nM; in experiment [4] it was 50 to 500 nM; in experiment [5], at most 50 nM; in experiment [6] it was 50 to 500 nM.
As to `CCc1cc(Nc2ncc(Br)c(Nc3ccc4nccnc4c3N(C)S(=O)(=O)C(F)(F)F)n2)c(OC)cc1N1CCC(N(C)C)C1` (stereo not drawn) [Compound I-128], the IC50 was 500 to 2500 nM in experiment [1]; 50 to 500 nM in experiment [2]; 500 to 2500 nM in experiment [3]; 50 to 500 nM in experiment [4]; at most 50 nM in experiment [5]; 50 to 500 nM in experiment [6].
Take `COc1cc(N2CCC(N3CCN(C)CC3)CC2)c(C)cc1Nc1ncc(Cl)c(Nc2ccc3nccnc3c2N(C)S(=O)(=O)C(F)(F)F)n1` [Compound I-129]: the IC50 in experiment [1] was 500 to 2500 nM; in experiment [2], 50 to 500 nM; in experiment [3], 500 to 2500 nM; in experiment [4], 500 to 2500 nM; in experiment [5] it was 50 to 500 nM; in experiment [6], 50 to 500 nM.
Take `CCc1cc(Nc2ncc(Cl)c(Nc3ccc4nccnc4c3N(C)S(=O)(=O)C(F)(F)F)n2)c(OC)cc1N1CCC(N2CCN(C)CC2)CC1` [Compound I-130]: the IC50 in experiment [1] was 50 to 500 nM; in experiment [2], 50 to 500 nM; in experiment [3] it was 50 to 500 nM; in experiment [4], 50 to 500 nM; in experiment [5], 50 to 500 nM; in experiment [6] it was at most 50 nM.
With `CCc1cc(Nc2ncc(Cl)c(Nc3ccc4nccnc4c3N(C)S(=O)(=O)C(F)(F)F)n2)c(OC(F)(F)F)cc1N1CCC(N2CCN(C)CC2)CC1` [Compound I-131], the IC50 in experiment [1] lay within 500 to 2500 nM; in experiment [2] it was 50 to 500 nM; in experiment [3] it was 500 to 2500 nM; in experiment [4], 500 to 2500 nM; in experiment [5], 50 to 500 nM; in experiment [6], 50 to 500 nM.
As for `CCc1cc(Nc2ncc(Cl)c(Nc3ccc4nccnc4c3N(C)S(=O)(=O)C(F)(F)F)n2)c(OC)cc1N1CCC(N(C)C)CC1` [Compound I-132], the IC50 in experiment [1] is 500 to 2500 nM; in experiment [2] it was 50 to 500 nM; in experiment [3], 500 to 2500 nM; in experiment [4], 50 to 500 nM; in experiment [5], at most 50 nM; in experiment [6], 50 to 500 nM.
Turning to `CCc1cc(Nc2ncc(Cl)c(Nc3ccc4nccnc4c3N(C)S(=O)(=O)C(F)(F)F)n2)c(OC)cc1N1CCC(N(C)C)C1` (stereo not drawn) [Compound I-133], the IC50 in experiment [1] was 500 to 2500 nM; in experiment [2], 50 to 500 nM; in experiment [3] it was 500 to 2500 nM; in experiment [4] it was 50 to 500 nM; in experiment [5] it was at most 50 nM; in experiment [6] it was 50 to 500 nM.
